Measurements: patent US8148391B2 (Cephalon, Inc., priority 2006, dated 2012)
Read-outs that look alike come from different tables or passages of the source.

What was measured:
[1] = target: T1, baculovirus-expressed ALK (Homo sapiens, UniProt Q9UM73); test: ALK Kinase Assay (ELISA-type, time-resolved fluorescence); type: biochemical
T1 construct: host or cells: baculovirus expression system
In short: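 Plates coated with phospholipase C-γ substrate (10 μg/mL in TBS); reaction started with 30 ng/ml ALK and run 15 min at 37° C. Phosphorylated substrate detected with Eu-N1-labeled PT66 antibody. IC50 from sigmoidal variable-slope fit of percent inhibition vs log concentration.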

[2] = target: T2, c-Met (cytoplasmic domain) (Homo sapiens, UniProt P08581); test: c-Met Kinase Assay (same methods as for ALK, with modifications); type: biochemical
T2 construct: 10 ng/mL c-Met (cytoplasmic domain, Invitrogen Corporation #PV3143); purchased Invitrogen Corporation PV3143
T2 sequence (P08581 956-1390 limits assumed): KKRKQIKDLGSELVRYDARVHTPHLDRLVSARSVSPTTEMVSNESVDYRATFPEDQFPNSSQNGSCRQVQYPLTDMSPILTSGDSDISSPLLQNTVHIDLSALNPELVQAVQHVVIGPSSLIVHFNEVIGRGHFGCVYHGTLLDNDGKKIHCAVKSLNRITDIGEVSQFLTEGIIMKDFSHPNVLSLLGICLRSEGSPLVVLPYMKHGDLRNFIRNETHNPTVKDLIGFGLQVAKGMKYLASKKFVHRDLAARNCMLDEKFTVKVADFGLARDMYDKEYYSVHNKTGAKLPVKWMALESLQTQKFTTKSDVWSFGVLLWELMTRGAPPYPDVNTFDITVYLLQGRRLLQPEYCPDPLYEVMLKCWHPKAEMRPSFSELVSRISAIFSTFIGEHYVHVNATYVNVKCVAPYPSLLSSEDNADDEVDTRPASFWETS
In short: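 Plates were coated with phospholipase C-γ substrate (10 μg/mL) in TBS, and the reaction was started with 10 ng/mL c-Met cytoplasmic domain and run 15 min at 37 °C. Phosphoproduct was detected with Eu-N1-labelled PT66 antibody. IC50 came from a variable-slope sigmoidal fit of percent inhibition vs log concentration.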

[3] = 1 μM ATP (Km level), 30 ng/ml ALK, 37° C., 15 minutes, read-out: ALK Activity (ALK kinase inhibition, IC50 class)
[4] = 1 μM ATP (Km level), 10 ng/mL c-Met, read-out: cMet Activity (c-Met kinase inhibition, IC50 class)
[5] = ALK kinase inhibition, 1 μM ATP, read-out: ALK Activity
[6] = c-Met kinase inhibition, 1 μM ATP, read-out: cMet Activity
[7] = 1 μM ATP (Km level), read-out: ALK Activity (ALK Kinase Inhibition, IC50)
[8] = 1 μM ATP (Km level), read-out: cMet Activity (c-Met Kinase Inhibition, IC50)
[9] = ALK kinase inhibition, 1 μM ATP (Km level), read-out: ALK Activity
[10] = c-Met kinase inhibition, 1 μM ATP (Km level), read-out: cMet Activity

T1 sequence (Q9UM73 19-1620): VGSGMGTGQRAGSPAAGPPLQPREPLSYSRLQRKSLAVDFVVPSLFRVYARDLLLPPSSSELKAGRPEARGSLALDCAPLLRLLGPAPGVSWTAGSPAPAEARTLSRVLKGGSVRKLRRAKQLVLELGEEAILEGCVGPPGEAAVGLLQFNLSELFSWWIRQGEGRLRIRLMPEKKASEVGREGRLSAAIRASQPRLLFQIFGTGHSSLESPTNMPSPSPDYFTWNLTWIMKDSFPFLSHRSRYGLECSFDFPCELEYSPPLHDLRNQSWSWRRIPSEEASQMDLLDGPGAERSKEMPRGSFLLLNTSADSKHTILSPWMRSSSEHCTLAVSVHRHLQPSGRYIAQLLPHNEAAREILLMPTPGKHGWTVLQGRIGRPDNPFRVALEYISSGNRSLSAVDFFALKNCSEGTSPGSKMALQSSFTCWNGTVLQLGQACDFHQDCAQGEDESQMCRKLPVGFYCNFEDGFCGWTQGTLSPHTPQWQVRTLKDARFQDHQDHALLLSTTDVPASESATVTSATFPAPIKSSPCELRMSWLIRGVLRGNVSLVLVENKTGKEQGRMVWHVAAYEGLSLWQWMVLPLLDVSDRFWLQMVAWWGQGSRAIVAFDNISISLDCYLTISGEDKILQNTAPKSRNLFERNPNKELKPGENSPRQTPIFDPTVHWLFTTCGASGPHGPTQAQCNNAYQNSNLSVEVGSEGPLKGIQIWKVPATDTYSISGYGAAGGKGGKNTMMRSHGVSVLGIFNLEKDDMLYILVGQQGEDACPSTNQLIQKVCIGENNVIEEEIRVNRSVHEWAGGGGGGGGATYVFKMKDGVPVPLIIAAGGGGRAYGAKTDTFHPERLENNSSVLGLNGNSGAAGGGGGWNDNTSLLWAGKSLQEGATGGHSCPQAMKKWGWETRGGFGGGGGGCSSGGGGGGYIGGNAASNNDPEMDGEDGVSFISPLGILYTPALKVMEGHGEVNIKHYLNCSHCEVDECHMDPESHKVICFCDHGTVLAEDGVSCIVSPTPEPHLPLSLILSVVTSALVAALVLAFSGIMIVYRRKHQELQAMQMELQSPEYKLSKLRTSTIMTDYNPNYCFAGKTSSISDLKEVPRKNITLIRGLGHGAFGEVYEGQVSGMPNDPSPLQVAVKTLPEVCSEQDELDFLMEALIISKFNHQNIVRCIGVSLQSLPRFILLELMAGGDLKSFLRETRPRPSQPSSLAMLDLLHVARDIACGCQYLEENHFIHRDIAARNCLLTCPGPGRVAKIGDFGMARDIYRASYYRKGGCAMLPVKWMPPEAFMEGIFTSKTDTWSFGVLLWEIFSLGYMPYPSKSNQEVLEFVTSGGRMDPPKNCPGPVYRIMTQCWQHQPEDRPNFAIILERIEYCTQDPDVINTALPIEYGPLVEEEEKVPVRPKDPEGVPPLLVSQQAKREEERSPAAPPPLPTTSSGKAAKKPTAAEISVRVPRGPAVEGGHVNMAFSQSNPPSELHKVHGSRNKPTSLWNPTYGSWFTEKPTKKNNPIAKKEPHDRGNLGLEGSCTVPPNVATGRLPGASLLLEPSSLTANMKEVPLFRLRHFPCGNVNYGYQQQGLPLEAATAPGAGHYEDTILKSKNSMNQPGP

Row | SMILES | IC50 [1, 5] [nM] | IC50 [2, 6] [nM] | IC50 [1, 7] [nM] | IC50 [2, 8] [nM] | other results
1 | COc1cc2c(cc1Nc1ncc(Cl)c(Nc3ccc(N(C)C)cc3OC)n1)CCN(Cc1nccn1C)CC2 [Example 1173, 5-Chloro-N*4*-(4-dimethylamino-2-methoxy-phenyl)-N*2*-[8-methoxy-3-(1-methyl-1H-imidazol-2-ylmethyl)-2,3,4,5-tetrahydro-1H-benzo[d]azepin-7-yl]-pyrimidine-2,4-diamine] | – | – | – | – | IC50 [1, 3]: < 100 nM; IC50 [2, 4]: > 10000 nM
2 | COc1cc2c(cc1Nc1ncc(Cl)c(Nc3ccccc3S(=O)(=O)C(C)C)n1)CCN(CC(=O)N1CCN(C)CC1)CC2 [Example 1541, 2-(7-{5-Chloro-4-[2-(propane-2-sulfonyl)-phenylamino]-pyrimidin-2-ylamino}-8-methoxy-1,2,4,5-tetrahydro-3-benzazepin-3-yl)-1-(4-methyl-piperazin-1-yl)-ethanone] | < 100 | > 10000 | – | – | –
3 | CNC(=O)c1ccccc1Nc1nc(Nc2ccc3c(c2)OCCCO3)ncc1Cl [Example 511] | – | – | < 100 | < 100 | –
4 | COc1cc2c(cc1Nc1ncc(Cl)c(Nc3ccccc3S(=O)(=O)N3CCC(O)C3)n1)CCN(CC(=O)N(C)C)CC2 (stereo not shown) [Example 1188, 2-(7-{5-Chloro-4-[2-(3-hydroxy-pyrrolidine-1-sulfonyl)-phenylamino]-pyrimidin-2-ylamino}-8-methoxy-1,2,4,5-tetrahydro-benzo[d]azepin-3-yl)-N,N-dimethyl-acetamide] | – | – | – | – | IC50 [1, 3]: < 100 nM; IC50 [2, 4]: 1000 to 10000 nM
5 | CCN1C(=O)C(C)(C)CCc2c1ccc(Nc1ncc(Cl)c(N[C@@H]3CCCC[C@H]3NS(C)(=O)=O)n1)c2OC [Example 143, N-{(1R,2R)-2-[5-Chloro-2-(1-ethyl-6-methoxy-3,3-dimethyl-2-oxo-2,3,4,5-tetrahydro-1H-benzo[b]azepin-7-ylamino)-pyrimidin-4-ylamino]-cyclohexyl}-methanesulfonamide] | – | – | – | – | IC50 [1, 9]: < 100 nM; IC50 [2, 10]: > 10000 nM
6 | CN1C(=O)OCCc2cc(Nc3ncc(Cl)c(Nc4c(F)cccc4OCCN)n3)ccc21 [Example 1781, 2-{4-[2-(2-Amino-ethoxy)-6-fluoro-phenylamino]-5-chloro-pyrimidin-2-ylamino}-5-methyl-8,9-dihydro-5H-7-oxa-5-aza-benzocyclohepten-6-one] | 1000 to 10000 | 1000 to 10000 | – | – | –
7 | CNC(=O)c1ccccc1Nc1nc(Nc2cc3c(cc2OC)CCN(CC(=O)N(C)C)CC3)ncc1Cl [Example 259, 2-[5-Chloro-2-(3-dimethylcarbamoylmethyl-8-methoxy-2,3,4,5-tetrahydro-1H-benzo[d]azepin-7-ylamino)-pyrimidin-4-ylamino]-N-methyl-benzamide] | – | – | – | – | IC50 [1, 9]: < 100 nM; IC50 [2, 10]: 100 to 1000 nM
8 | CCN1C2CCC1c1cc(Nc3ncc(Cl)c(N[C@@H]4CCCC[C@H]4NS(C)(=O)=O)n3)ccc1C2 (stereo partly drawn) [Example 71, N-{(1R,2R)-2-[5-Chloro-2-(12-ethyl-12-aza-tricyclo[7.2.1.0*2,7*]dodeca-2(7),3,5-trien-4-ylamino)-pyrimidin-4-ylamino]-cyclohexyl}-methanesulfonamide] | – | – | – | – | IC50 [1, 9]: < 100 nM; IC50 [2, 10]: 100 to 1000 nM
9 | COc1ccccc1Nc1nc(Nc2ccc3c(c2)CCC(NCC(F)F)CC3)ncc1Cl (stereo not shown) [Example 663, 5-Chloro-N*2*-[7-(2,2-difluoro-ethylamino)-6,7,8,9-tetrahydro-5H-benzocyclohepten-2-yl]-N*4*-(2-methoxy-phenyl)-pyrimidine-2,4-diamine] | – | – | < 100 | 1000 to 10000 | –
10 | CCN1C(=O)OCCc2ccc(Nc3ncc(Cl)c(Nc4ccccc4C(=O)NC)n3)cc21 [Example 1881, 2-[5-Chloro-2-(5-ethyl-6-oxo-5,6,8,9-tetrahydro-7-oxa-5-aza-benzocyclohepten-3-ylamino)-pyrimidin-4-ylamino]-N-methyl-benzamide] | – | – | – | – | IC50 [1, 9]: 100 to 1000 nM; IC50 [2, 10]: 100 to 1000 nM
11 | CNC(=O)c1sccc1Nc1nc(Nc2ccc3c(c2)NC(=O)C(NC(C)=O)CC3(C)C)ncc1Cl (stereo not shown) [Example 1291, 3-[2-(3-Acetylamino-5,5-dimethyl-2-oxo-2,3,4,5-tetrahydro-1H-1-benzazepin-8-ylamino)-5-chloro-pyrimidin-4-ylamino]-thiophene-2-carboxylic acid methylamide] | – | – | – | – | IC50 [1, 3]: 1000 to 10000 nM; IC50 [2, 4]: < 100 nM
12 | COc1ccccc1Nc1nc(Nc2ccc3c(c2)CCC(N2CCN(C)CC2)CC3)ncc1Cl (stereo not shown) [Example 891, 5-Chloro-N*4*-(2-methoxy-phenyl)-N*2*-[7-(4-methyl-piperazin-1-yl)-6,7,8,9-tetrahydro-5H-benzocyclohepten-2-yl]-pyrimidine-2,4-diamine] | – | – | < 100 | 1000 to 10000 | –
13 | COCCN1CCc2ccc(Nc3ncc(Cl)c(Nc4ccccc4C(=O)NC(C)C)n3)cc2CC1 [Example 342, 2-{5-Chloro-2-[3-(2-methoxy-ethyl)-2,3,4,5-tetrahydro-1H-benzo[d]azepin-7-ylamino]-pyrimidin-4-ylamino}-N-isopropyl-benzamide] | – | – | – | – | IC50 [1, 9]: < 100 nM; IC50 [2, 10]: 100 to 1000 nM

More lines, main results first:

Row | IC50 [1, 5] [nM] | IC50 [2, 6] [nM] | IC50 [1, 7] [nM] | IC50 [2, 8] [nM] | SMILES | other results
14 | < 100 | 1000 to 10000 | – | – | CNC(=O)c1ccccc1Nc1nc(Nc2cc3c(cc2OC)NC(=O)CCC3(C)C)ncc1Cl [Example 1671, 2-[5-Chloro-2-(8-methoxy-5,5-dimethyl-2-oxo-2,3,4,5-tetrahydro-1H-benzo[b]azepin-7-ylamino)-pyrimidin-4-ylamino]-N-methyl-benzamide] | –
15 | – | – | < 100 | 1000 to 10000 | CCN1CCN(CC)c2cc(Nc3ncc(Cl)c(Nc4cc(Cl)ccc4OC)n3)ccc2C1 [Example 719, 5-Chloro-N*4*(5-chloro-2-methoxy-phenyl-N*2*-(1,4-diethyl-2,3,4,5-tetrahydro-1H-benzo[e][1,4]diazepin-8-yl)-pyrimidine)-2,4-diamine] | –
16 | < 100 | < 100 | – | – | CCN1C(=O)CCC(C)(C)c2ccc(Nc3ncc(Cl)c(Nc4c(F)cc(F)cc4C(=O)NC)n3)cc21 [Example 1615, 2-[5-Chloro-2-(1-ethyl-5,5-dimethyl-2-oxo-2,3,4,5-tetrahydro-1H-benzo[b]azepin-8-ylamino)-pyrimidin-4-ylamino]-3,5-difluoro-N-methyl-benzamide] | –
17 | – | – | < 100 | > 10000 | COc1cc2c(cc1Nc1ncc(Cl)c(Nc3ccc(N4CCOCC4)cc3OC)n1)CCN(CC(N)=O)CC2 [Example 799, 2-{7-[5-Chloro-4-(2-methoxy-4-morpholin-4-yl-phenylamino)-pyrimidin-2-ylamino]-8-methoxy-1,2,4,5-tetrahydro-benzo[d]azepin-3-yl}-acetamide] | –
18 | 1000 to 10000 | < 100 | – | – | CNC(=O)c1ccccc1Nc1nc(Nc2ccc3c(c2)NC(=O)CN(C)C3)ncc1Cl [Example 1867, 2-[5-Chloro-2-(4-methyl-2-oxo-2,3,4,5-tetrahydro-1H-benzo[e][1,4]diazepin-8-ylamino)-pyrimidin-4-ylamino]-N-methyl-benzamide] | –
19 | 1000 to 10000 | 100 to 1000 | – | – | C#CCNC(=O)c1cc(F)cc(F)c1Nc1nc(Nc2ccc3c(c2)N(C(=O)N2CCCC2)CCCC3(C)C)ncc1Cl [Example 1622, 2-{5-Chloro-2-[5,5-dimethyl-1-(pyrrolidine-1-carbonyl)-2,3,4,5-tetrahydro-1H-benzo[b]azepin-8-ylamino]-pyrimidin-4-ylamino}-3,5-difluoro-N-prop-2-ynyl-benzamide] | –
20 | – | – | < 100 | 100 to 1000 | CNC(=O)c1cc(OC)ccc1Nc1nc(Nc2ccc3c(c2)C(C)(C)CCC(=O)N3)ncc1Cl [Example 609, 2-[5-Chloro-2-(5,5-dimethyl-2-oxo-2,3,4,5-tetrahydro-1H-benzo[b]azepin-7-ylamino)-pyrimidin-4-ylamino]-5-methoxy-N-methyl-benzamide] | –
